Results published in US20160199436A1, “METHODS AND COMPOSITIONS FOR THE TREATMENT OF AMYOTROPHIC LATERAL SCLEROSIS” (University of Iowa Research Foudation, priority 2015, published 2016).
Entries after “also recorded” stand apart in the source; their conditions may differ.

Tests used:
[1] = system: SOD1 mice; experiment: ALS score (disease progression/quality of life) in SOD1 mice; type: in vivo, mouse
Source text: (§1) In this Example, SOD1 mice, a known and accepted model of amyotrophic lateral sclerosis (ALS), were used to assess the effects of angiotensin (1-7) peptides, here TXA127 (SEQ ID NO: 1), on survival and quality of life over time. The SOD1 mouse line are known to contain a G93A mutation in their superoxide dismutase 1 (SOD1) gene, and this mutation leads to a phenotype very similar to the phenotype of a human ALS sufferer.
(§2) A total of 70 mice were used in this study, 40 SOD1 mice and 30 wild type C57BL/6J mice (all were obtained from the Jackson Laboratories). Mice were three weeks old at the beginning of the study, and osmotic minipumps were implanted in each animal. After implantation, each animal was exposed to either 500 μg/kg/day TXA127 (SEQ ID NO: 1) or saline vehicle for up to 8 weeks. After 8 weeks, surviving mice received a daily injection of either 500 μg/kg TXA127 (SEQ ID NO: 1) or vehicle.
In addition to survival, disease progression/quality of life was measured over time using the rating scale described above. […] FIG. 3 further describes this effect, by showing the percentage of animals in each SOD1 group that were rated as having an ALS score of 2 or less over time.

[2] = system: SOD1 mice; experiment: Survival of SOD1 mice (ALS model), Kaplan Meier; type: in vivo, mouse
Source text: as §1, §2

[3] = 500 μg/kg/day TXA127 vs SOD1-vehicle, up to 30 weeks

## Asp^1-Arg^2-Val^3-Tyr^4-Ile^5-His^6-Pro^7 [TXA127]
[1]; 500 μg/kg/day TXA127
  disease progression (summary in words): delays disease progression
[1]; [3]
  percentage of animals with an ALS score of 2 or less over time (FIG. 3): clearly delayed the worsening of symptoms, often by several weeks
  sum of ALS scores over time (FIG. 2): significantly delaying worsening of symptoms
[2]; 500 μg/kg/day TXA127
  effect on survival (in words): powerful survival benefit; also recorded: significant effect on survival
  extension of life (median) versus vehicle treated SOD1 mice: 30 days
[2]; 500 μg/kg/day TXA127 by osmotic minipump up to 8 weeks, then daily injection
  median survival: 164 days
